The numbers were not newly measured in patent publication US20060257434A1, “Production of emulsions of pharmaceutical compositions” (priority 2005, published 2006), which cites them from elsewhere.

The conditions of the series: over a physiological pH range.

In the case of `CCCn1c(=O)c2[nH]c(C34CC5CC(CC3C5)C4)nc2n(CCC)c1=O` [KW-3902, 8-(3-noradamantyl)-1,3-dipropylxanthine], the solubility result is listed as “less than 1 μg/ml”.
